Measurements as given in patent US20100056515A1, “BENZIMIDAZOLE COMPOUNDS” (priority 2006, published 2010).
pIC50: −log10 of the molar value.

Columns and labels:
human CRF receptor = target: T1, human CRF receptor (Homo sapiens, UniProt P34998); test: Measurement of CRF Binding Inhibitory Rate (receptor binding experiment with 125I-CRF); conditions: human CRF receptor expressing CHO cellular membrane fraction; 50 pM ovine 125I-CRF; 0.05 nM to 10 μM of compound; room temperature 1.5 hr; read-out: IC50 values (CRF binding inhibition)
T1 construct: expressed in transfected cells; host or cells: CHO cells (membrane fraction)
T1 sequence (P34998 24-415): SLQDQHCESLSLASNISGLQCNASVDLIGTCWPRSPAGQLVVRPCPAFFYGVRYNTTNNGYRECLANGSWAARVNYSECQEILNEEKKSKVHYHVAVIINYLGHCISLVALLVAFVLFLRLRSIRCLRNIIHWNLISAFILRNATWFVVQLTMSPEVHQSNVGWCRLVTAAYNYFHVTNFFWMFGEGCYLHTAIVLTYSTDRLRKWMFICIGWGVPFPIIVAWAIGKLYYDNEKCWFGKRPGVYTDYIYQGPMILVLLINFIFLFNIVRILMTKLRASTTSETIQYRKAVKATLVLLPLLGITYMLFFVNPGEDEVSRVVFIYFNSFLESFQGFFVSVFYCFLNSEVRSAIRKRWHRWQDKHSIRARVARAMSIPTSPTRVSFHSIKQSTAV
Experimental: Measurement of CRF Binding Inhibitory Rate
A receptor binding experiment was carried out using a human CRF receptor expressing CHO cellular membrane fraction and ovine CRF, [^125I]-tyr^0(^125I-CRF). 1000 nM of a test compound was incubated with 1 μg of human CRF receptor expressing CHO cellular membrane fraction and 50 pM of ^125I-CRF in a binding assay buffer (50 mM Tris-HCl, 5 mM EDTA, 10 mM MgCl2, 0.05% CHAPS, 0.1% BSA, 0.5 mM PMSF, 0.1 μg/mL pepstatin, 20 μg/mL leupeptin, pH 7.5). In addition, for measuring nonspecific binding (NSB), 0.1 μM unlabelled human Urocortin was incubated with 5 μg of human CRF receptor expressing CHO cellular membrane fraction and 50 pM of ^125I-CRF in a binding assay buffer. After a binding reaction was carried out at room temperature for 1.5 hr, the membrane was entrapped on a glass filter (UniFilter plate GF-C/Perkin Elmer) by suction filtration using a cell harvester (Perkin Elmer), and washed with ice-cooled 50 mM Tris-HCl (pH 7.5). After drying the glass filter, a liquid scintillation cocktail (Microscinti 0, Perkin Elmer) was added, and the radioactivity of ^125I-CRF remaining on a glass filter was measured using Topcount (Perkin Elmer).
(TB-SB)/(TB-NSB)×100 (SB: radioactivity when a compound is added, TB: maximum binding radioactivity, NSB: nonspecific binding radioactivity) were calculated to obtain binding inhibitory rates under the range of the presence from 0.05 nM to 10 μM of each compounds. The IC50 values were calculated by using GraphPad Prism software.

SMILES	pIC50 (human CRF receptor)	melting point
CCC(CC)c1ccc(Cl)c2nc(Oc3c(C)cc(S(C)(=O)=O)cc3Cl)n(C)c12 [Example 38, 4-Chloro-2-[2-chloro-6-methyl-4-(methylsulfonyl)phenoxy]-7-(1-ethylpropyl)-1-methyl-1H-benzimidazole]	> 6.00	199 to 200 °C
CCC(CC)c1ccc(Cl)c2nc(Oc3c(C)cc(S(N)(=O)=O)cc3Cl)n(C)c12 [Example 40, 3-Chloro-4-{[4-chloro-7-(1-ethylpropyl)-1-methyl-1H-benzimidazol-2-yl]oxy}-5-methylbenzenesulfonamide]	> 6.00	293 to 294 °C
CCC(CC)c1ccc(Cl)c2nc(Oc3c(Cl)cc(OC(F)(F)F)cc3SC)n(C)c12 [Example 42, 4-Chloro-2-[2-chloro-6-(methylthio)-4-(trifluoromethoxy)phenoxy]-7-(1-ethylpropyl)-1-methyl-1H-benzimidazole]	> 6.00	138 to 139 °C
CCC(CC)c1ccc(Cl)c2nc(Oc3c(Cl)cc(OC(F)(F)F)cc3[S+](C)[O-])n(C)c12 (centres unmarked) [Example 43, 4-Chloro-2-[2-chloro-6-(methylsulfinyl)-4-(trifluoromethoxy)phenoxy]-7-(1-ethylpropyl)-1-methyl-1H-benzimidazole]	> 6.00	150 to 151 °C
CCC(CC)c1ccc(Cl)c2nc(Oc3c(Cl)cc(OC(F)(F)F)cc3S(C)(=O)=O)n(C)c12 [Example 44, 4-Chloro-2-[2-chloro-6-(methylsulfonyl)-4-(trifluoromethoxy)phenoxy]-7-(1-ethylpropyl)-1-methyl-1H-benzimidazole]	> 6.00	164 to 165 °C
CCC(CC)c1ccc(Cl)c2nc(Nc3c(C)cc(SC)cc3OC)n(C)c12 [Example 45, 4-Chloro-7-(1-ethylpropyl)-N-[2-methoxy-6-methyl-4-(methylthio)phenyl]-1-methyl-1H-benzimidazol-2-amine]	> 6.00	223 to 225 °C
CCC(CC)c1ccc(Cl)c2nc(Nc3c(C)cc(Cl)cc3SC)n(C)c12 [Example 50, 4-Chloro-N-[4-chloro-2-methyl-6-(methylthio)phenyl]-7-(1-ethylpropyl)-1-methyl-1H-benzimidazol-2-amine]	> 6.00	167 to 169 °C
CCC(CC)c1ccc(Cl)c2nc(Nc3c(C)cc(Cl)cc3[S+](C)[O-])n(C)c12 (centres unmarked) [Example 51, 4-Chloro-N-[4-chloro-2-methyl-6-(methylsulfinyl)phenyl]-7-(1-ethylpropyl)-1-methyl-1H-benzimidazol-2-amine]	> 6.00	212 to 213 °C
CCC(CC)c1ccc(Cl)c2nc(Oc3c(OC)cc(C)nc3N(C)C)n(C)c12 [Example 52, 3-{[4-Chloro-7-(1-ethylpropyl)-1-methyl-1H-benzimidazol-2-yl]oxy}-4-methoxy-N,N,6-trimethylpyridin-2-amine]	> 6.00	202 to 203 °C
CCC(CC)c1ccc(Cl)c2nc(Oc3c(Cl)cc(Cl)c4c3CN(C)C4)n(C)c12 [Example 55, 4-Chloro-2-[(5,7-dichloro-2-methyl-2,3-dihydro-1H-isoindol-4-yl)oxy]-7-(1-ethylpropyl)-1-methyl-1H-benzimidazole]	> 6.00	148 to 149 °C
CCC(CC)c1ccc(Cl)c2nc(Oc3c(OC)cc(C(F)(F)F)nc3C)n(C)c12 [Example 56, 4-Chloro-7-(1-ethylpropyl)-2-{[4-methoxy-2-methyl-6-(trifluoromethyl)pyridin-3-yl]oxy}-1-methyl-1H-benzimidazole]	> 6.00	178 to 179 °C
CCC(CC)c1ccc(Br)c2nc(Oc3c(C)cc(Cl)cc3Cl)n(C)c12 [Example 70, 4-Bromo-2-(2,4-dichloro-6-methylphenoxy)-7-(1-ethylpropyl)-1-methyl-1H-benzimidazole]	> 6.00	146 to 147 °C
CCC(CC)c1ccc(Cl)c2nc(Oc3c(Br)cc(Br)nc3C)n(C)c12 [Example 74, 4-Chloro-2-[(4,6-dibromo-2-methylpyridin-3-yl)oxy]-7-(1-ethylpropyl)-1-methyl-1H-benzimidazole]	> 6.00	202 to 203 °C
CCC(CC)c1ccc(OC)c2nc(Oc3c(Cl)cc(Cl)cc3CN(C)C)n(C)c12.Cl [Example 77, 1-(3,5-Dichloro-2-{[7-(1-ethylpropyl)-4-methoxy-1-methyl-1H-benzimidazol-2-yl]oxy}phenyl)-N,N-dimethylmethanamine]	> 6.00	169 to 170 °C
CCC(CC)c1ccc(Cl)c2nc(Oc3c(Cl)cc(Cl)cc3CN3CCCC3)n(C)c12 [Example 78, 4-Chloro-2-[2,4-dichloro-6-(pyrrolidin-1-ylmethyl)phenoxy]-7-(1-ethylpropyl)-1-methyl-1H-benzimidazole]	> 6.00	122 to 123 °C
CCC(CC)c1ccc(OC)c2nc(Oc3c(Cl)cc(Cl)cc3CN3CCCC3)n(C)c12.Cl [Example 79, 2-[2,4-Dichloro-6-(pyrrolidin-1-ylmethyl)phenoxy]-7-(1-ethylpropyl)-4-methoxy-1-methyl-1H-benzimidazole]	> 6.00	183 to 185 °C
CCC(CC)c1ccc(OC)c2nc(Oc3c(Cl)cc(Cl)cc3CN3CCCC3C)n(C)c12.Cl (centres unmarked) [Example 80, 2-{2,4-Dichloro-6-[(2-methylpyrrolidin-1-yl)methyl]phenoxy}-7-(1-ethylpropyl)-4-methoxy-1-methyl-1H-benzimidazole]	> 6.00	171 to 173 °C
CCC(CC)c1ccc(OC)c2nc(Oc3c(F)cc(Br)cc3Cl)n(C)c12 [Example 81, 2-(4-Bromo-2-chloro-6-fluorophenoxy)-7-(1-ethylpropyl)-4-methoxy-1-methyl-1H-benzimidazole]	> 6.00	129 to 131 °C
CCC(CC)c1ccc(Cl)c2nc(Oc3ccc(N(C)C)cc3Cl)n(C)c12 [Example 83, 3-Chloro-4-{[4-chloro-7-(1-ethylpropyl)-1-methyl-1H-benzimidazol-2-yl]oxy}-N,N-dimethylaniline]	> 6.00	148 to 149 °C
CCC(CC)c1ccc(Cl)c2nc(Oc3c(Cl)cc(Cl)cc3CN(C)C)n(C)c12 [Example 86, 1-(3,5-Dichloro-2-{[4-chloro-7-(1-ethylpropyl)-1-methyl-1H-1-benzimidazol-2-yl]oxy}phenyl)-N,N-dimethylmethanamine]	> 6.00	149 to 151 °C
CCC(CC)c1ccc(OC)c2nc(Nc3c(C)cc(Cl)cc3Cl)n(C)c12 [Example 88, N-(2,4-Dichloro-6-methylphenyl)-7-(1-ethylpropyl)-4-methoxy-1-methyl-1H-benzimidazol-2-amine]	> 6.00	201 to 203 °C
CCC(CC)c1cccc2nc(Oc3c(C)cc(Cl)cc3Cl)n(C)c12 [Example 91, 2-(2,4-Dichloro-6-methylphenoxy)-7-(1-ethylpropyl)-1-methyl-1H-benzimidazole]	> 6.00	91 to 92 °C
CCC(CO)c1ccc(Cl)c2nc(Oc3c(C)cc(Cl)cc3Cl)n(C)c12 (centres unmarked) [Example 94, 2-[4-Chloro-2-(2,4-dichloro-6-methylphenoxy)-1-methyl-1H-benzimidazol-7-yl]butan-1-ol]	> 6.00	208 to 209 °C
CCC(CCO)c1ccc(Cl)c2nc(Oc3c(C)cc(Cl)cc3Cl)n(C)c12 (centres unmarked) [Example 97, 3-[4-Chloro-2-(2,4-dichloro-6-methylphenoxy)-1-methyl-1H-benzimidazol-7-yl]pentan-1-ol]	> 6.00	165 to 167 °C
CCC(CC=O)c1ccc(Cl)c2nc(Oc3c(C)cc(Cl)cc3Cl)n(C)c12 (centres unmarked) [Example 98, 3-[4-Chloro-2-(2,4-dichloro-6-methylphenoxy)-1-methyl-1H-benzimidazol-7-yl]pentanal]	> 6.00	157 to 158 °C
